Read-outs that look alike come from different tables or passages of the source.
What was measured:
[1] = molecular target: T1, Full length human CDC7 protein co-expressed with DBF4 (Homo sapiens, UniProt O00311); assay: CDC7 kinase biochemical assay (ADP-Glo, PDKtide substrate); details: 0.1 nM CDC7/DBF4, 1 uM ATP, 10 uM PDKtide, 4 h; read-out: CDC7 ADP-Glo PDKtide IC50
T1 construct: Full length human CDC7 protein co-expressed with DBF4; purchased SignalChem (China)
Outline: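 ADP-Glo luminescence measured ADP made over a 4 h reaction of 0.1 nM CDC7/DBF4 (full-length human) with 10 uM PDKtide and 1 uM ATP. Buffer was 40 mM Tris pH 7.5 with 20 mM MgCl2, 0.1 mg/ml BSA, 50 uM DTT. Inhibition normalized to DMSO and positive-control inhibitor wells.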

[2] = tested on: phosphorylation of MCM2 S53 (CDC7 substrate) in colo205 cells; assay: Phosphorylated MCM2 MSD electrochemiluminescence assay; assay type: cell-based; details: Homo sapiens, read-out: pMCM2-S53 MSD Colo205 IC50
Procedure: Phosphorylated MCM2 MSD Electrochemiluminescence Assay
The effect of CDC7 inhibitors on cellular phosphorylation of the CDC7 substrate MCM2 was determined using the following protocol:
A total of 40,000 colo205 cells in 100 uL culture medium (1640 medium+10% Fetal bovine serum+1% Penicillin-Streptomycin) were plated in 96-well cell culture plates and allowed to attach for 6 hours. 3-fold serial dilutions of test compounds were prepared in completed PBS at 25× final concentration and 4 uL of each were added to the cells and incubated for 20 hours at 37° C., 5% CO2. Each concentration was tested in duplicate. After the 20 h incubation, cells were washed with 150 uL PBS and lysed with 40 uL MSD lysis buffer (obtained from Meso Scale Diagnostics) supplied with 1× complete ULTRA cocktail inhibitor (obtained from Roche). To detect phosphorylation of MCM2 S53, 30 μL of capture antibody solution (obtained from Abnova, catalog number H00004171-M01, 1:500) was added to each well of MULTI-ARRAY 96-well High Bind Plate, and incubated overnight. The antibody solution was removed, wells blocked with BSA solution and plates washed, followed by addition of 30 ul of cell lysate per well. After 2 h incubation, plates were washed. 30 μL of 1× detection antibody solution (obtained from Abcam, catalog number ab109133, 1:1000) was then added to each well and incubate for 1 hour. Plates were washed and 30 μL of 1× secondary antibody solution (obtained from MSD, catalog number R32AB-1, 1:5000) was added to each well and incubate for 1 hour. Plates were washed and 150 μL of 1× Read Buffer T was added to each well of the MSD plate. The electrochemiluminescence signal was measured on a MESO SECTOR S600 plate reader. The percentage of remaining phosphorylated MCM2 signal was calculated following the equation below.
HC (high control): Cells treated with DMSO Cpds: Cells treated with test compounds LC (low control): Cells treated with positive control CDC7 inhibitor

[3] = COLO 205, colo205 cells, 20 h incubation

T1 sequence (O00311 whole entry): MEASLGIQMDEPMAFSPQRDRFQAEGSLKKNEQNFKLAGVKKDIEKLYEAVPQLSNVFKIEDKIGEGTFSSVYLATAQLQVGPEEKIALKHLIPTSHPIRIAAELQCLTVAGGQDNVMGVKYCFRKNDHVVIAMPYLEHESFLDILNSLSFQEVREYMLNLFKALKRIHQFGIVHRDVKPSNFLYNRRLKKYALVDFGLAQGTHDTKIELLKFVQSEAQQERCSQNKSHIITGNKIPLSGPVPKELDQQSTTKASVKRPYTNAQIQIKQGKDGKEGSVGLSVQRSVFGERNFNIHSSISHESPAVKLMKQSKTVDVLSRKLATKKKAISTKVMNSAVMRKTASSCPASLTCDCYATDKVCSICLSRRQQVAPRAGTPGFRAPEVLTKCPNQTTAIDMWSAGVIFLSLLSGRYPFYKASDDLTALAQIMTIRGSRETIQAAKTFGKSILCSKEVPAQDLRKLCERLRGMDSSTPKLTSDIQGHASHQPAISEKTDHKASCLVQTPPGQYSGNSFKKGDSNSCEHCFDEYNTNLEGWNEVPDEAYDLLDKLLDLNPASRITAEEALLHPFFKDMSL
T1 sequence (Q9UBU7 whole entry partner): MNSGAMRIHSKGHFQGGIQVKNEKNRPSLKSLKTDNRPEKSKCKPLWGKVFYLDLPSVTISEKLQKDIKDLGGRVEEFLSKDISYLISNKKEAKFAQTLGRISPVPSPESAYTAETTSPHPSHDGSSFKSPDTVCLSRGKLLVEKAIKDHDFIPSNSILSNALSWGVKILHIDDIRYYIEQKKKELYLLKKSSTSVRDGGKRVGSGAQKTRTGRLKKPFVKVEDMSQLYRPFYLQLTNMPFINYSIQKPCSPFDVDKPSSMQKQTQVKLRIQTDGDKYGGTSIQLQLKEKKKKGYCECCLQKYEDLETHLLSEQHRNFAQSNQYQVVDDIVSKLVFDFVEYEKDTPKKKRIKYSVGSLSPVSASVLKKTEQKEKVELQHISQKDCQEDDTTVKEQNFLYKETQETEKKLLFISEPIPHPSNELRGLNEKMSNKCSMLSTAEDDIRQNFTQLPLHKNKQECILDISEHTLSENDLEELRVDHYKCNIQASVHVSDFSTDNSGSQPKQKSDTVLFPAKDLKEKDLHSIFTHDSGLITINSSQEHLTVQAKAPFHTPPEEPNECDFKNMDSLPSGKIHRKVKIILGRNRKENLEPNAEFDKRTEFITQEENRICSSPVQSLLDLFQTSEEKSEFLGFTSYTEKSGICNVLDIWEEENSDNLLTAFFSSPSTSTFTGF

IC50 [1]	IC50 [2, 3]	SMILES	IC50 ([2]; COLO 205, 20 h)
< 1 nM	509 nM	O=C1NCCN2c3c1sc(-c1cn[nH]c1)c3OC[C@@H]2CO [Compound 49, (S)-5-(hydroxymethyl)-2-(1H-pyrazol-4-yl)-4,5,7,8-tetrahydro-3-oxa-1-thia-5a,8-diazabenzo[cd]azulen-9(6H)-one]	
< 1 nM	5 nM	O=C1N[C@@H]([C@H]2CCCO2)CN2CC(F)(F)Cc3c(-c4cn[nH]c4)sc1c32 (single isomer, unassigned) [Compound 118]	
< 1 nM	28 nM	C[C@@H]1CN2CC(F)(F)Oc3c(-c4cn[nH]c4)sc(c32)C(=O)N1 [Compound 93, (10R)-6,6-difluoro-10-methyl-3-(1H-pyrazol-4-yl)-5-oxa-2-thia-8,11-diazatricyclo [6.4.1.0^443] trideca-1(13), 3-dien-12-one]	
< 1 nM	12 nM	O=C1N[C@@H](C23CCC(CC2)O3)CN2CC(F)(F)Cc3c(-c4cn[nH]c4)sc1c32 (single isomer, unassigned) [Compound 121]	
< 1 nM	66 nM	O=C1N[C@@H](Cn2cccn2)CN2CC(F)(F)Cc3c(-c4cn[nH]c4)sc1c32 [Compound 102, (R)-7-((1H-pyrazol-1-yl)methyl)-4,4-difluoro-2-(1H-pyrazol-4-yl)-4,5,7,8-tetrahydro-3H-1-thia-5a,8-diazabenzo[cd]azulen-9(6H)-one]	
< 1 nM	57 nM	O=C1N[C@H](C2CCC2)CN2CCOc3c(-c4cn[nH]c4)sc1c32 [Compound 19, (R)-7-cyclobutyl-2-(1H-pyrazol-4-yl)-4,5,7,8-tetrahydro-3-oxa-1-thia-5a,8-diazabenzo[cd]azulen-9(6H)-one]	
< 1 nM	110 nM	COC[C@@H]1CN2CCOc3c(-c4cn[nH]c4)sc(c32)C(=O)N1 [Compound 54, (S)-7-(methoxymethyl)-2-(1H-pyrazol-4-yl)-4,5,7,8-tetrahydro-3-oxa-1-thia-5a,8-diazabenzo[cd]azulen-9(6H)-one]	
< 1 nM	80 nM	O=C1NC[C@H](CO)N2CCOc3c(-c4cn[nH]c4)sc1c32 [Compound 33, (R)-6-(hydroxymethyl)-2-(1H-pyrazol-4-yl)-4,5,7,8-tetrahydro-3-oxa-1-thia-5a,8-diazabenzo[cd]azulen-9(6H)-one]	
< 1 nM	87 nM	Cc1cnn(C[C@H]2CN3CCOc4c(-c5cn[nH]c5)sc(c43)C(=O)N2)c1 [Compound 41, (R)-7-((4-methyl-1H-pyrazol-1-yl)methyl)-2-(1H-pyrazol-4-yl)-4,5,7,8-tetrahydro-3-oxa-1-thia-5a,8-diazabenzo[cd]azulen-9(6H)-one]	
< 1 nM	5 nM	O=C1N[C@@H](COC(F)F)CN2CC(F)(F)Cc3c(-c4cn[nH]c4)sc1c32 [Compound 142, (R)-7-((difluoromethoxy)methyl)-4,4-difluoro-2-(1H-pyrazol-4-yl)-4,5,7,8-tetrahydro-3H-1-thia-5a,8-diazabenzo[cd]azulen-9(6H)-one]	
< 1 nM	12 nM	COC[C@H]1CN2C[C@@H](F)Cc3c(-c4cn[nH]c4)sc(c32)C(=O)N1 (single isomer, unassigned) [Compound 125]	
< 1 nM	15 nM	COC[C@H]1CN2CC(F)(F)Cc3c(-c4cn[nH]c4)sc(c32)C(=O)N1 [Compound 103, (10R)-6,6-difluoro-10-(methoxymethyl)-3-(1H-pyrazol-4-yl)-2-thia-8,11-diazatricyclo [6.4.1.0^4,13]trideca-1(13),3-dien-12-one]	
< 1 nM	265 nM	O=C1N[C@H](CO)CN2CCOc3c(-c4cn[nH]c4)sc1c32 [Compound 39, (S)-7-(hydroxymethyl)-2-(1H-pyrazol-4-yl)-4,5,7,8-tetrahydro-3-oxa-1-thia-5a,8-diazabenzo[cd]azulen-9(6H)-one]	
< 1 nM	150 nM	CC(C)(O)C[C@@H]1CNC(=O)c2sc(-c3cn[nH]c3)c3c2N1CCO3 [Compound 104, (R)-6-(2-hydroxy-2-methylpropyl)-2-(1H-pyrazol-4-yl)-4,5,7,8-tetrahydro-3-oxa-1-thia-5a,8-diazabenzo[cd]azulen-9(6H)-one]	
< 1 nM	218 nM	COC[C@@H]1CN2CC(F)(F)Cc3c(-c4cn[nH]c4)sc(c32)C(=O)N1 [Compound 115, (S)-4,4-difluoro-7-(methoxymethyl)-2-(1H-pyrazol-4-yl)-4,5,7,8-tetrahydro-3H-1-thia-5a,8-diazabenzo[cd]azulen-9(6H)-one]	
< 1 nM	812 nM	O=C1N[C@@H](CO)CN2CCCc3c(-c4cn[nH]c4)sc1c32 [Compound 32, (R)-7-(hydroxymethyl)-2-(1H-pyrazol-4-yl)-4,5,7,8-tetrahydro-3H-1-thia-5a,8-diazabenzo[cd]azulen-9(6H)-one]	
< 1 nM	16 nM	C[C@H]1CN2CCOc3c(-c4cn[nH]c4)sc(c32)C(=O)N1 [Compound 16, (S)-7-methyl-2-(1H-pyrazol-4-yl)-4,5,7,8-tetrahydro-3-oxa-1-thia-5a,8-diazabenzo[cd]azulen-9(6H)-one]	
< 1 nM	27 nM	O=C1N[C@@H]([C@@H]2CC(F)(F)CN2)CN2CC(F)(F)Cc3c(-c4cn[nH]c4)sc1c32 [Compound 135, (10R)-10-[(2S)-4,4-difluoropyrrolidin-2-yl]-6,6-difluoro-3-(1H-pyrazol-4-yl)-2-thia-8,11-diazatricyclo[6.4.1.04,13]trideca-1(13),3-dien-12-one]	
< 1 nM	41 nM	C[C@H]1CN2CCCc3c(-c4cn[nH]c4)sc(c32)C(=O)N1 [Compound 30, (S)-7-methyl-2-(1H-pyrazol-4-yl)-4,5,7,8-tetrahydro-3H-1-thia-5a,8-diazabenzo[cd]azulen-9(6H)-one]	
< 1 nM	21 nM	COC[C@@H]1CNC(=O)c2sc(-c3cn[nH]c3)c3c2N1CCO3 [Compound 55, (S)-6-(methoxymethyl)-2-(1H-pyrazol-4-yl)-4,5,7,8-tetrahydro-3-oxa-1-thia-5a,8-diazabenzo[cd]azulen-9(6H)-one]	
< 1 nM	268 nM	O=C1NC[C@H](CO)N2CCOc3c(-c4ccncc4)sc1c32 [Compound 50, (R)-6-(hydroxymethyl)-2-(pyridin-4-yl)-4,5,7,8-tetrahydro-3-oxa-1-thia-5a,8-diazabenzo[cd]azulen-9(6H)-one]	
< 1 nM	256 nM	O=C1NC[C@@H](C2CCOCC2)N2CCOc3c(-c4cn[nH]c4)sc1c32 (single isomer, unassigned) [Compound 27]	
< 1 nM	23 nM	O=C1N[C@H](C2CCC2)CN2CC(F)(F)Oc3c(-c4cn[nH]c4)sc1c32 [Compound 100, (R)-7-cyclobutyl-4,4-difluoro-2-(1H-pyrazol-4-yl)-4,5,7,8-tetrahydro-3-oxa-1-thia-5a,8-diazabenzo[cd]azulen-9(6H)-one]	
< 1 nM	660 nM	COC1(C[C@@H]2CNC(=O)c3sc(-c4cn[nH]c4)c4c3N2CCC4)CC1 [Compound 91, (9R)-9-[(1-methoxycyclopropyl)methyl]-3-(1H-pyrazol-4-yl)-2-thia-8,11-diazatricyclo [6.4.1.0^4,13]trideca-1(13),3-dien-12-one]	
< 1 nM	16 nM	CN1CC(F)(F)C[C@H]1[C@H]1CN2CC(F)(F)Cc3c(-c4cn[nH]c4)sc(c32)C(=O)N1 [Compound 136, (R)-7-((S)-4,4-difluoro-1-methylpyrrolidin-2-yl)-4,4-difluoro-2-(1H-pyrazol-4-yl)-4,5,7,8-tetrahydro-3H-1-thia-5a,8-diazabenzo[cd]azulen-9(6H)-one]	
< 1 nM	902 nM	COC[C@H]1CN2C[C@H](F)Cc3c(-c4cn[nH]c4)sc(c32)C(=O)N1 (single isomer, unassigned) [Compound 126]	

SMILES	IC50 [1]	IC50 [2, 3]	IC50 ([2]; COLO 205, 20 h)
O=C1NC2(CCC2)CN2CCOc3c(-c4cn[nH]c4)sc1c32 [Compound 51, 2-(1H-pyrazol-4-yl)-4,5-dihydro-6H-3-oxa-1-thia-5a,8-diazaspiro[benzo[cd]azulene-7,1′-cyclobutan]-2,2a1(9a)-dien-9(8H)-one]	< 1 nM		18 nM

Source: patent US20230101747A1 (Schrödinger, Inc., priority 2019, published 2023)
